The record followed here is PMC8001898, “New Triterpene Glycosides from the Far Eastern Starfish Solaster pacificus and Their Biological Activity” (Biomolecules, 2021).

For data set [1], the system named is human embryonic kidney HEK 293 cells. The experiment in a line: MTS cell viability assay, HEK 293 cells. The data set is classed as cell-based. The conditions noted are these: Homo sapiens, HEK293, 24 h, individual compounds, 24 h, MTS; read-out: Inhibiting Concentration, (IC50), HEK 293, a. On the procedure:
(§1) Human embryonic kidney HEK 293 cells (ATCC® no. CRL-1573™), colorectal carcinoma HT-29 cells (ATCC® no. HTB-38™), melanoma RPMI-7951 cells (ATCC® no. HTB-66), and breast cancer MDA-MB-231 cells (ATCC® HTB-26™) were obtained from the American Type Culture Collection (Manassas, VA, USA). […] The cell cultures were maintained at 37 °C in humidified atmosphere containing 5% CO2. […] After three passages the cells were used for the experiments. […] Then samples were vacuum evaporated and dissolved in DMSO to their stock concentrations of 20 mM. Cells (1.0 × 10^4) were seeded in 96-well plates (Jet Biofil, Guangzhou, China) and cultured in 200 µL of complete culture medium for 24 h at 37 °C in 5% CO2 incubator.

Data set [2] deals with colorectal carcinoma HT-29 cells. Kind of data set: MTS cell viability assay, HT-29 cells. The following applies: Homo sapiens, HT-29, 24 h, individual compounds, 24 h, MTS; read-out: Inhibiting Concentration, (IC50), HT-29, a. The data set is classed as cell-based, human. The procedure: as §1
The subject of data set [3] is melanoma RPMI-7951 cells. The experiment in a line: Soft agar colony formation assay, RPMI-7951 cells. The conditions noted are these: 1 µM, soft agar, 14 days. Format: cell-based, human. On the procedure:
(§2) Compounds 1–6 were dissolved in sterile DMSO to prepare stock concentrations of 20 mM. Cells were treated with serially diluted compounds 1–6 (culture medium used as diluent) to give the intended final concentrations. The vehicle control is the cells treated with equivalent volume of DMSO (less than 0.5%) for all presented experiments.
(§3) Human cancer cells (2.4 × 10^4/mL) were seeded into 6-well plate and treated with compounds 1–6 (0.1, 0.5, and 1 µM) or cisplatin (3 µM) in 1 mL of 0.3% BME agar containing 10% FBS, 2 mM L-glutamine, and 25 µg/mL gentamicin. The cultures were maintained in a 37 °C, 5% CO2 incubator for 14 days, and the cell colonies were scored using a Motic microscope AE 20 (XiangAn, Xiamen, China) and ImageJ software bundled with 64-bit Java 1.8.0_112 (NIH, Bethesda, MD, USA).
(§4) Figure 3 Effect of compounds 1–6 on colony formation of human colorectal carcinoma HT-29, melanoma RPMI-7951, and breast cancer MDA-MB-231 cell lines. HT-29, RPMI-7951, and MDA-MB-231 cells (2.4 × 10^4 /mL) treated with/without investigated 1–6 (0.1, 0.5, and 1 µM) and subjected into a soft agar. The culture was maintained at 37 °C in a 5% CO2 atmosphere for 2 weeks. The colonies were counted under a microscope with the aid of the ImageJ software program (n = 6 for control and each compound, n—quantity of photos). The asterisks (* p < 0.05, ** p < 0.01, *** p < 0.001) indicate a significant decrease in colony formation in cells treated with compounds compared with the nontreated cells (control).

The test system of data set [4] is breast cancer MDA-MB-231 cells. The experiment in a line: Soft agar colony formation assay, MDA-MB-231 cells. Format: cell-based, human. The following applies: 1 µM, soft agar, 14 days. The procedure: as §2, §3, §4
Data set [5] deals with HEK 293, HT-29, RPMI-7951, and MDA-MB-231 cells. Kind of data set: MTS cell viability assay, statements on all tested cell lines. The data set is classed as cell-based, human. The following applies: individual compounds, 24 h, concentrations range up to 40 µM.
Method: Cells (1.0 × 10^4) were seeded in 96-well plates (Jet Biofil, Guangzhou, China) and cultured in 200 µL of complete culture medium for 24 h at 37 °C in 5% CO2 incubator. […] Cells were also treated by cisplatin (positive control) at 1, 5, 10, 50, 100 µM for 24 and 48 h. Subsequently, the cells were incubated with 15 µL MTS reagent for 3 h, and the absorbance of each well was measured at 490/630 nm using Power Wave XS microplate reader (BioTek, Wynusky, VT, USA).
In data set [6] the test system is melanoma RPMI-7951 cells. The experiment in a line: MTS cell viability assay, RPMI-7951 cells. The data set is classed as cell-based, human. The conditions noted are these: Homo sapiens, RPMI-7951, 24 h, individual compounds, 24 h, MTS; read-out: Inhibiting Concentration, (IC50), RPMI-7951, a. On the procedure:
as §1

Data set [7] relates to breast cancer MDA-MB-231 cells. The experiment in a line: MTS cell viability assay, MDA-MB-231 cells. The following applies: Homo sapiens, MDA-MB-231, 24 h, individual compounds, 24 h, MTS; read-out: Inhibiting Concentration, (IC50), MDA-MB-231, a. The data set is classed as cell-based, human. The procedure: as §1
In data set [8] the test system is colorectal carcinoma HT-29 cells. Kind of data set: Soft agar colony formation assay, HT-29 cells. The data set is classed as cell-based, human. The following applies: 1 µM, soft agar, 14 days. The procedure:
as §2, §3, §4

The subject of data set [9] is HT-29, RPMI-7951, and MDA-MB-231 cells. The experiment in a line: Soft agar colony formation assay, statements on all types of cancer cells. The following applies: nontoxic concentrations. The data set is classed as cell-based, human. On the procedure:
as §2, §3
Figure 3 Effect of compounds 1–6 on colony formation of human colorectal carcinoma HT-29, melanoma RPMI-7951, and breast cancer MDA-MB-231 cell lines. HT-29, RPMI-7951, and MDA-MB-231 cells (2.4 × 10^4 /mL) treated with/without investigated 1–6 (0.1, 0.5, and 1 µM) and subjected into a soft agar. The culture was maintained at 37 °C in a 5% CO2 atmosphere for 2 weeks. The colonies were counted under a microscope with the aid of the ImageJ software program (n = 6 for control and each compound, n—quantity of photos). […]

Consider `CO[C@@H]1[C@@H](O)[C@H](O[C@@H]2[C@@H](O)[C@H](O[C@H]3[C@H](O)[C@@H](O[C@@H]4OC[C@@H](O)[C@H](O)[C@H]4O)[C@H](O[C@H]4[C@H](O[C@H]5CC[C@]6(C)[C@@H]7CCC89C(=O)O[C@@](C)(/C=C/C=O)[C@H]8[C@@H](OC(C)=O)C[C@@]9(C)C7=CC[C@H]6C5(C)C)OC[C@@H](O)[C@@H]4O)O[C@@H]3C)O[C@H](CO)[C@H]2O)OC[C@H]1O` (stereo partly drawn) [Compound 1, 3β-O-{3-O-methyl-β-D-xylopyranosyl-(1→3)-β-D-glucopyranosyl-(1→4)-[β-D-xylopyranosyl-(1→2)]-β-D-quinovopyranosyl-(1→2)-β-D-xylopyranosyl}-16β-acetoxy-25,26,27-trinorholosta-7,22-dien-24-al], for which the IC50 (in data set [1]; in data set [2]; with melanoma RPMI-7951 cells [6]; in [7]) was > 40 µM each time. Moreover, the “decrease of number of colonies of RPMI-7951” value in the data set on melanoma RPMI-7951 cells [3] was determined as 27%. Besides, the “decrease of number of colonies of MDA-MB-231” value in [4] was determined as 28%. Besides, in data set [5], the “cytotoxic activity against the tested cell lines (in words)” value is reported as “nontoxic”. Further, the “decrease of number of colonies of HT-29” value in data set [8] stood at 21%. Moreover, the “colony formation of all types of cancer cells (in words)” value in data set [9] is “slightly inhibited”.
